Data: ChEMBL document CHEMBL3872249, “Computer design, synthesis, and bioactivity analyses of drugs like fingolimod used in the treatment of multiple sclerosis” (Bioorg Med Chem, 2017)
Active and inactive are the calls of the source. The rule behind the calls is not given here.

Key:
[1] = target: Sphingosine 1-phosphate receptor 1 (Homo sapiens) (UniProt P21453); assay: Agonist activity at sphingosine-1-phosphate receptor human SK-N-SH cells assessed as increase in cAMP level at EC10 by direct immunoassay; format: functional, cell-based
[2] = system: SH-SY5Y; assay: Effect on S1PR1 mRNA expression in human SH-SY5Y cells at EC10 by qPCR method relative to beta-actin; format: functional
[3] = system: SH-SY5Y; assay: Effect on CCL2 mRNA expression in human SH-SY5Y cells at EC10 by qPCR method relative to beta-actin; format: functional
[4] = system: SH-SY5Y; assay: Effect on DRD2 mRNA expression in human SH-SY5Y cells at EC10 by qPCR method relative to beta-actin; format: functional
[5] = system: SH-SY5Y; assay: Effect on MMP9 mRNA expression in human SH-SY5Y cells at EC10 by qPCR method relative to beta-actin; format: functional
[6] = system: SH-SY5Y; assay: Effect on IL10 mRNA expression in human SH-SY5Y cells at EC10 by qPCR method relative to beta-actin; format: functional
[7] = system: SK-N-SH; assay: Effect on IL6 mRNA expression in human SK-N-SH cells at EC10 by qPCR method relative to beta-actin; format: functional
[8] = system: SH-SY5Y; assay: Effect on ADORA2A mRNA expression in human SH-SY5Y cells at EC10 by qPCR method relative to beta-actin; format: functional
[9] = system: SH-SY5Y; assay: Effect on IL6 mRNA expression in human SH-SY5Y cells at EC10 by qPCR method relative to beta-actin; format: functional
[10] = system: U-118-MG; assay: Effect on ADORA2A mRNA expression in human U118MG cells at EC10 by qPCR method relative to beta-actin; format: functional
[11] = system: SK-N-SH; assay: Effect on ADORA2A mRNA expression in human SK-N-SH cells at EC10 by qPCR method relative to beta-actin; format: functional
[12] = target: Sphingosine 1-phosphate receptor 1 (Homo sapiens) (UniProt P21453); assay: Agonist activity at sphingosine-1-phosphate receptor in human U118MG cells assessed as increase in cAMP level at EC10 by direct immunoassay; format: functional, cell-based; conditions: U-118-MG
[13] = system: SH-SY5Y; assay: Effect on ICAM1 mRNA expression in human SH-SY5Y cells at EC10 by qPCR method relative to beta-actin; format: functional
[14] = system: SH-SY5Y; assay: Effect on TNF mRNA expression in human SH-SY5Y cells at EC10 by qPCR method relative to beta-actin; format: functional
[15] = system: U-118-MG; assay: Effect on IL10 mRNA expression in human U118MG cells at EC10 by qPCR method relative to beta-actin; format: functional
[16] = system: SH-SY5Y; assay: Effect on ADCY5 mRNA expression in human SH-SY5Y cells at EC10 by qPCR method relative to beta-actin; format: functional
[17] = system: SH-SY5Y; assay: Effect on VCAM1 mRNA expression in human SH-SY5Y cells at EC10 by qPCR method relative to beta-actin; format: functional
[18] = system: U-118-MG; assay: Effect on IL6 mRNA expression in human U118MG cells at EC10 by qPCR method relative to beta-actin; format: functional
[19] = system: SH-SY5Y; assay: Effect on CXCL10 mRNA expression in human SH-SY5Y cells at EC10 by qPCR method relative to beta-actin; format: functional
[20] = system: U-118-MG; assay: Effect on VCAM1 mRNA expression in human U118MG cells at EC10 by qPCR method relative to beta-actin; format: functional
[21] = system: SH-SY5Y; assay: Effect on PMP22 mRNA expression in human SH-SY5Y cells at EC10 by qPCR method relative to beta-actin; format: functional
[22] = Cytotoxicity against human SH-SY5Y cells measured after 24 hrs by crystal-violet staining based assay; format: toxicity, cell-based
[23] = system: SH-SY5Y; assay: Effect on GNAS mRNA expression in human SH-SY5Y cells at EC10 by qPCR method relative to beta-actin; format: functional
[24] = system: U-118-MG; assay: Effect on NFKB1 mRNA expression in human U118MG cells at EC10 by qPCR method relative to beta-actin; format: functional
[25] = Cytotoxicity against human SK-N-SH cells measured after 24 hrs by crystal-violet staining based assay; format: toxicity, cell-based
[26] = system: SH-SY5Y; assay: Effect on TNFRSF1A mRNA expression in human SH-SY5Y cells at EC10 by qPCR method relative to beta-actin; format: functional
[27] = system: U-118-MG; assay: Effect on TNF mRNA expression in human U118MG cells at EC10 by qPCR method relative to beta-actin; format: functional
[28] = system: SK-N-SH; assay: Effect on GNAS mRNA expression in human SK-N-SH cells at EC10 by qPCR method relative to beta-actin; format: functional
[29] = Cytotoxicity against human U118MG cells measured after 24 hrs by crystal-violet staining based assay; format: toxicity, cell-based; conditions: u-118-mg
[30] = system: SK-N-SH; assay: Effect on EPHA1 mRNA expression in human SK-N-SH cells at EC10 by qPCR method relative to beta-actin; format: functional
[31] = system: U-118-MG; assay: Effect on MMP9 mRNA expression in human U118MG cells at EC10 by qPCR method relative to beta-actin; format: functional
[32] = target: Sphingosine 1-phosphate receptor 1 (Homo sapiens) (UniProt P21453); assay: Agonist activity at sphingosine-1-phosphate receptor (unknown origin) expressed in HEK293 cells assessed as increase in cAMP level at EC10 after 18 hrs by CRE-responsive renilla luciferase reporter gene assay; format: functional, cell-based
[33] = system: U-118-MG; assay: Effect on GNAS mRNA expression in human U118MG cells at EC10 by qPCR method relative to beta-actin; format: functional
[34] = system: SK-N-SH; assay: Effect on PMP22 mRNA expression in human SK-N-SH cells at EC10 by qPCR method relative to beta-actin; format: functional
[35] = system: SK-N-SH; assay: Effect on TNFRSF1A mRNA expression in human SK-N-SH cells at EC10 by qPCR method relative to beta-actin; format: functional
[36] = system: U-118-MG; assay: Effect on ICAM1 mRNA expression in human U118MG cells at EC10 by qPCR method relative to beta-actin; format: functional
[37] = target: Sphingosine 1-phosphate receptor 1 (Homo sapiens) (UniProt P21453); assay: Agonist activity at sphingosine-1-phosphate receptor in human SH-SY5Y cells assessed as increase in cAMP level at EC10 by direct immunoassay; format: functional, cell-based
[38] = system: SH-SY5Y; assay: Effect on NFKB1 mRNA expression in human SH-SY5Y cells at EC10 by qPCR method relative to beta-actin; format: functional
[39] = system: SK-N-SH; assay: Effect on CXCL10 mRNA expression in human SK-N-SH cells at EC10 by qPCR method relative to beta-actin; format: functional
[40] = system: SK-N-SH; assay: Effect on DRD2 mRNA expression in human SK-N-SH cells at EC10 by qPCR method relative to beta-actin; format: functional
[41] = system: U-118-MG; assay: Effect on PMP22 mRNA expression in human U118MG cells at EC10 by qPCR method relative to beta-actin; format: functional
[42] = system: U-118-MG; assay: Effect on ADCY5 mRNA expression in human U118MG cells at EC10 by qPCR method relative to beta-actin; format: functional
[43] = system: SK-N-SH; assay: Effect on CCL2 mRNA expression in human SK-N-SH cells at EC10 by qPCR method relative to beta-actin; format: functional
[44] = system: SK-N-SH; assay: Effect on ADCY5 mRNA expression in human SK-N-SH cells at EC10 by qPCR method relative to beta-actin; format: functional

Sphingosine 1-phosphate receptor 1 (Homo sapiens), sequence (P21453 whole entry): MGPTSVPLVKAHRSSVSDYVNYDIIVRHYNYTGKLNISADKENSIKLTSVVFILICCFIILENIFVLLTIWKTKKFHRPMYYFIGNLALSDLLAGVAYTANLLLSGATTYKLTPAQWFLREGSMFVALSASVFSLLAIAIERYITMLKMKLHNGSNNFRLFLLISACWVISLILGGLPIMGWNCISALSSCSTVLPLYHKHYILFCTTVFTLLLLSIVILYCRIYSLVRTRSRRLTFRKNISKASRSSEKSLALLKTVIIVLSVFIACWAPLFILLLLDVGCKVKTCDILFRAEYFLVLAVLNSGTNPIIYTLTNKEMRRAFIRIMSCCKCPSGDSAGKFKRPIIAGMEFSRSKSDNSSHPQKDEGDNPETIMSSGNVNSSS

Q: Which results are given for CCCCCCCCn1nnnc1CCC(N)(CO)CO.Cl?
A: Activity [1]: Active; fold change (FC) [2]: -4.2848; fold change (FC) [3]: -3.0787; fold change (FC) [4]: -3.3881; fold change (FC) [5]: -5.7901; fold change (FC) [6]: -7.3448; fold change (FC) [7]: -11.9743; fold change (FC) [8]: -6.5966; fold change (FC) [9]: -4.4551; fold change (FC) [10]: -5.0641; fold change (FC) [11]: -5.915; Activity [12]: Active; fold change (FC) [13]: -7.3035; fold change (FC) [14]: -3.2642; fold change (FC) [15]: -2.5669; fold change (FC) [16]: -5.9067; fold change (FC) [17]: -5.2706; fold change (FC) [18]: -4.7651; fold change (FC) [19]: -3.4279; fold change (FC) [20]: -3.8654; fold change (FC) [21]: -3.5921; EC10 [22]: 450 nM; fold change (FC) [23]: -8.1531; fold change (FC) [24]: -2.6004; EC10 [25]: 370 nM; fold change (FC) [26]: -6.2787; fold change (FC) [27]: -5.8487; fold change (FC) [28]: -7.631; EC10 [29]: 540 nM; fold change (FC) [30]: -7.9001; fold change (FC) [31]: -4.4691; Activity [32]: Active; fold change (FC) [33]: -2.9212; fold change (FC) [34]: -4.1464; fold change (FC) [35]: -3.6537; fold change (FC) [36]: -5.127; Activity [37]: Active; fold change (FC) [38]: -3.8433; fold change (FC) [39]: -4.7219; fold change (FC) [40]: -3.8822; fold change (FC) [41]: -5.1248; fold change (FC) [42]: -5.787; fold change (FC) [43]: -8.981; fold change (FC) [44]: -4.4983

Q: Which results are given for CCCCCCCCn1nnnc1-c1ccc(C(O)CC(N)(CO)CO)cc1.Cl (stereo not drawn)?
A: Activity [1]: Active; fold change (FC) [2]: -5.0215; fold change (FC) [3]: -4.1393; fold change (FC) [4]: -3.4837; fold change (FC) [5]: -3.9092; fold change (FC) [6]: -3.3797; fold change (FC) [7]: -4.899; fold change (FC) [8]: -4.6048; fold change (FC) [9]: -3.0565; fold change (FC) [10]: -4.4431; fold change (FC) [11]: -4.3394; Activity [12]: Active; fold change (FC) [13]: -3.763; fold change (FC) [14]: -3.511; fold change (FC) [15]: -2.6793; fold change (FC) [16]: -4.3188; fold change (FC) [17]: -4.0191; fold change (FC) [18]: -4.3829; fold change (FC) [19]: -3.1588; fold change (FC) [20]: -5.7757; fold change (FC) [21]: -3.0092; EC10 [22]: 300 nM; fold change (FC) [23]: -4.6852; fold change (FC) [24]: -4.6974; EC10 [25]: 270 nM; fold change (FC) [26]: -3.2986; fold change (FC) [27]: -6.5178; fold change (FC) [28]: -4.4537; EC10 [29]: 360 nM; fold change (FC) [30]: -3.7516; fold change (FC) [31]: -4.5002; Activity [32]: Active; fold change (FC) [33]: -3.2119; fold change (FC) [34]: -5.2416; fold change (FC) [35]: -4.1053; fold change (FC) [36]: -5.4736; Activity [37]: Active; fold change (FC) [38]: -3.5415; fold change (FC) [39]: -6.1156; fold change (FC) [40]: -4.2208; fold change (FC) [41]: -5.4523; fold change (FC) [42]: -6.08; fold change (FC) [43]: -4.9933; fold change (FC) [44]: -4.6187
